Values joined by “and” are separate entries in the source; they are usually repeats but may differ in a detail not shown here. Equal entries are not always repeated.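 All cell lines were grown in 96-well plates and treated with compound for 48 hours. At the GI50, growth is halved. Definition used: TGI = concentration required for complete inhibition of growth.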
Assays:
Assay in all cases: NCI anticancer screen, dose series, 48 h
PC-3 prostate = tested on: PC-3 prostate
DMS 273 small cell lung = tested on: DMS 273 small cell lung
RXF-631 renal = tested on: RXF-631 renal
SNB-78 CNS = tested on: SNB-78 CNS
HOP-18 NSCLC = tested on: HOP-18 NSCLC
XF 498 CNS = tested on: XF 498 CNS
DLD-1 colon = tested on: DLD-1 colon
DMS 114 small cell lung = tested on: DMS 114 small cell lung
MDA-N = tested on: MDA-N

Structure (SMILES)	GI50 (PC-3 prostate)	TGI (PC-3 prostate)	TGI (SNB-78 CNS) [µM]	TGI (HOP-18 NSCLC) [µM]	TGI (DLD-1 colon) [µM]	other results
O=C(O)c1cccc(COc2ccc([N+](=O)[O-])cc2Cl)c1	> 100 µM	> 100 µM	–	–	–	–
CC(C)[C@H](O)C(=O)N[C@@H](C)C(=O)N[C@@H]1C(=O)N(C)CCc2ccccc21	> 100 µM	> 100 µM	–	–	–	–
CCOC(=O)NC(=O)c1cn(C2CCCCC2)c(=O)[nH]c1=O	–	–	> 100	> 100	> 100	TGI (DMS 273 small cell lung): > 100 µM; TGI (RXF-631 renal): > 100 µM; TGI (XF 498 CNS): > 100 µM
N[C@H](CCC(=O)N[C@@H](Cc1c[nH]c2ccccc12)C(=O)O)C(=O)O	> 100 µM	> 100 µM	–	–	–	–
CC(C)CCC[C@@H](C)C1CCC2[C@@H]3CC=C4C[C@@H](C(=O)NCCN(C)C)CC[C@]4(C)C3CC[C@@]21C (stereo not given in full)	–	–	> 100	66.6	> 100	TGI (DMS 273 small cell lung): > 100 µM; TGI (DMS 114 small cell lung): 38.1 µM; TGI (XF 498 CNS): 48.7 µM
O=C(N/C(=C\c1ccc([N+](=O)[O-])cc1)c1nc2ccccc2[nH]1)c1ccccc1	–	–	> 100	> 100	> 100	TGI (DMS 114 small cell lung): > 100 µM; TGI (RXF-631 renal): > 100 µM
CC(C)(C)c1ccc2c(c1)S(=O)(=O)Nc1ccc(Cl)cc1NS(=O)(=O)c1cc(C(C)(C)C)ccc1OCCOCCOCCO2	–	–	> 100	> 100	> 100	TGI (DMS 273 small cell lung): > 100 µM; TGI (DMS 114 small cell lung): > 100 µM
Nc1ccccc1O.O.O=C(O)C1[O][Sb][O]C1C(=O)O (stereo not given)	25.8 µM	> 100 µM	–	–	–	GI50 (MDA-N): 17.4 µM; TGI (MDA-N): 42.2 µM
COc1cc2c(cc1O)CCN[C@]21CS[C@@H]2c3c(OC(C)=O)c(C)c4c(c3[C@H](COC1=O)N1[C@@H]2[C@H]2c3c(cc(C)c(OC)c3O)C[C@@H]([C@@H]1O)N2C)OCO4	0.00279 µM	0.119 µM	–	–	–	–
CN(C)CCNCCN	–	> 100 µM	–	–	–	TGI (MDA-N): > 100 µM
ClC(Cl)=C1C(=C(Cl)Cl)C(Cl)(Cl)C1(Cl)Cl	–	5.08 µM	7.71	19.4	3.3	TGI (DMS 273 small cell lung): 9.87 µM; TGI (DMS 114 small cell lung): 2.33 µM; TGI (RXF-631 renal): 13.9 µM; TGI (MDA-N): 2.81 µM
O=C(CC(=O)C1CCOC1=O)C(=O)Nc1cccc(Cl)c1 (stereo not given)	–	–	> 100	> 100	> 100	TGI (DMS 273 small cell lung): > 100 µM; TGI (DMS 114 small cell lung): > 100 µM; TGI (RXF-631 renal): > 100 µM
COc1ccc(C(CC(=O)c2ccc3c(c2)OCO3)c2c(O)c3ccccc3oc2=O)cc1OC (stereo not given)	–	> 100 µM	–	–	–	TGI (MDA-N): > 100 µM
COC(=O)c1cc2c(o1)-c1nccc3c1c(nc1ccccc13)C2=O	3.41 µM	29.6 µM	–	–	–	GI50 (MDA-N): 0.691 µM; TGI (MDA-N): 2.22 µM
CCC(C)(O)c1cnc(CC(C)C)c(=O)n1O (stereo not given)	–	> 100 µM	–	–	–	TGI (MDA-N): > 100 µM
COC(=O)C1C(O)C(C(=O)OC)C(C)N(C)C1C (stereo not given)	–	> 100 µM	–	–	–	TGI (MDA-N): > 100 µM
O=C(Nc1cc(Nc2ncccc2-c2ncnc3nc[nH]c23)ccc1F)c1cc(C(F)(F)F)cc(C(F)(F)F)c1	2.34 µM	5.19 µM	–	–	–	–
COC(=O)C1=COC(C)C2CN3CCc4c([nH]c5ccccc45)C3CC12 (stereo not given)	24 µM and > 100 µM	95.2 µM and > 100 µM	–	–	–	GI50 (MDA-N): 31.6 µM and > 100 µM; TGI (MDA-N): > 100 µM

Structure (SMILES)	GI50 (PC-3 prostate)	TGI (PC-3 prostate)	TGI (SNB-78 CNS) [µM]	TGI (HOP-18 NSCLC) [µM]	TGI (DLD-1 colon) [µM]	other results
Nc1ccccc1C(=O)/C=C/c1c(O)ccc2ccccc12	–	–	> 100	> 100	> 100	TGI (DMS 273 small cell lung): > 100 µM; TGI (DMS 114 small cell lung): > 100 µM; TGI (RXF-631 renal): > 100 µM
COc1cc2c(Nc3cc(Cl)c(OC)c(Cl)c3)c(C#N)cnc2cc1OCCCN1CCN(C)CC1	7.06 µM	20.6 µM	–	–	–	–
O=C(Nc1cc(Cl)ccc1O)c1ccc(Nc2ccnc(C(F)(F)F)c2)cc1	2.72 µM	9.02 µM	–	–	–	–
CC1=NN(C(=O)CC(=O)Nc2ccccc2F)C(=O)C1N=Nc1ccccc1[N+](=O)[O-] (stereo not given)	–	–	> 100	–	> 100	TGI (DMS 273 small cell lung): > 100 µM; TGI (DMS 114 small cell lung): > 100 µM; TGI (XF 498 CNS): > 100 µM
Cc1ccccc1C1=[N+]([O-])c2ccc(Cl)cc2C1=O	–	–	–	35.4	19.6	TGI (RXF-631 renal): 16.8 µM; TGI (XF 498 CNS): 14.3 µM
COc1ccc(-c2cnnn2-c2nonc2-n2cccc2)cc1	0.331 µM	31.9 µM	–	–	–	–
COc1ccc(-c2ccc3c(N4CCOC[C@@H]4C)nc(N4CCOC[C@@H]4C)nc3n2)cc1CO	0.00478 µM and < 0.0109 µM	> 100 µM	–	–	–	–
COc1cccc(/C=N/[N-]C(=O)c2ccncc2)c1[O-].COc1cccc(/C=N/[N-]C(=O)c2ccncc2)c1[O-].[O]=[U](=[O])([OH2+])[OH2+]	–	–	> 100	88.6	> 100	GI50 (DMS 273 small cell lung): 4.2 µM; TGI (DMS 273 small cell lung): > 56.6 µM; GI50 (DMS 114 small cell lung): 3.3 µM; TGI (DMS 114 small cell lung): 12.5 µM; GI50 (SNB-78 CNS): > 87.7 µM; GI50 (HOP-18 NSCLC): 12.1 µM; GI50 (XF 498 CNS): 4.75 µM; TGI (XF 498 CNS): 37.6 µM; GI50 (DLD-1 colon): 4.19 µM
COc1ccc(CC2c3c(cc(OC)c(OC)c3OC)CCN2C)cc1OC (stereo not given)	–	–	> 100	> 100	> 100	TGI (XF 498 CNS): > 100 µM
O=C1c2ccccc2-c2c1c1ccccc1c(=O)n2CCN1CCNCC1	4.02 µM	17.8 µM	–	–	–	–
COc1ccc(/C(C)=C(\c2ccc(OCCN3CCCCCC3)cc2)c2ccc(OC(=O)C3CCCCC3)cc2)cc1	0.541 µM	2.38 µM	–	–	–	–
OC(c1cc(-c2ccc(C(F)(F)F)cc2)nc(C(F)(F)F)c1)C1CCCCN1 (stereo not given)	1.72 µM	3.37 µM and 6.33 µM	–	–	–	TGI (MDA-N): 3.04 µM
O=C(Cc1nc2c3c(ccc2[nH]c1=O)C(=O)c1ccccc1C3=O)C(=O)Nc1ccccc1[N+](=O)[O-]	–	–	16.5	–	–	TGI (XF 498 CNS): 43.1 µM
Cc1cc2c(c(C(N)=O)c1C)-c1ccccc1C2=O	–	–	> 100	> 100	> 100	TGI (DMS 273 small cell lung): > 100 µM; TGI (DMS 114 small cell lung): > 100 µM; TGI (RXF-631 renal): > 100 µM
COc1ccc(-c2nc(-c3cc(OC)cc(OC)c3)[nH]c2-c2ccc(OC)cc2)cc1	4 µM	> 100 µM	–	–	–	–
CC(C)c1[nH]nc2c1N=C(c1ccccc1Cl)c1cc([N+](=O)[O-])ccc1N2	6.7 µM	> 25 µM	–	–	–	–
CC(C)=C1CCC(CN(C)C)C1=O (stereo not given)	–	–	–	36.6	36.8	TGI (DMS 114 small cell lung): 38.4 µM; TGI (RXF-631 renal): > 100 µM
CC(C)(C)[Si](C)(C)OC1[C@@H](CNC(=O)NC(=O)CCl)O[C@@H](n2cnc3c(N)ncnc32)[C@H]1O[Si](C)(C)C(C)(C)C (stereo not given in full)	0.942 µM	2.05 µM	–	–	–	–

— PubChem BioAssay (NCI)
